Assay [1] concerns the target Hepatocyte growth factor receptor (Homo sapiens) (UniProt P08581). As to the kind of experiment: Residual activity of MET at 0.1 uM by microplate scintillation counting.
Assay [2] deals with Cyclin-dependent kinase 1/cyclin B1 (Homo sapiens) (UniProt P06493+P14635). As to the kind of experiment: Residual activity of CDK1/CyclinB1 at 10 uM by microplate scintillation counting. It counts as protein-complex assay.
Assay [3] concerns the target Ribosomal protein S6 kinase alpha-4 (Homo sapiens) (UniProt O75676). Put plainly: Residual activity of RPS6KA4 at 1 uM by microplate scintillation counting.
Assay [4] has as its target Ribosomal protein S6 kinase alpha-2 (Homo sapiens) (UniProt Q15349). As to the kind of experiment: Residual activity of RPS6KA2 at 0.1 uM by microplate scintillation counting.
Assay [5] deals with Epidermal growth factor receptor (Homo sapiens, UniProt P00533). Put plainly: Inhibition of wild type EGF-R by microplate scintillation counting.
The target in assay [6] is T1, Interleukin-1 receptor-associated kinase 4 (Homo sapiens) (UniProt Q9NWZ3).
T1 sequence (whole entry): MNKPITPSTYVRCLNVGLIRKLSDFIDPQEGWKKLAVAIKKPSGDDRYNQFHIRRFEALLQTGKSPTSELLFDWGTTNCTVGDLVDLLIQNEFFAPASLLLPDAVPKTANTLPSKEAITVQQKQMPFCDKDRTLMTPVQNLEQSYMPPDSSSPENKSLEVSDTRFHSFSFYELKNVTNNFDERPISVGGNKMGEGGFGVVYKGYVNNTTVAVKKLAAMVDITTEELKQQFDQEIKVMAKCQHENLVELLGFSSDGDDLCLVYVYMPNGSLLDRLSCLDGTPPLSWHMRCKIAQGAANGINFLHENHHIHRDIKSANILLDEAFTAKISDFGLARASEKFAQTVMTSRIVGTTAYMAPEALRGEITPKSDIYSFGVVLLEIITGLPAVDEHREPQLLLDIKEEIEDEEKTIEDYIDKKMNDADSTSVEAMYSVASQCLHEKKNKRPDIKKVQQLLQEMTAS
Put plainly: Residual activity of IRAK4 at 10 uM by microplate scintillation counting.

Assay [7] addresses Leukocyte tyrosine kinase receptor (Homo sapiens) (UniProt P29376). As to the kind of experiment: Residual activity of LTK at 1 uM by microplate scintillation counting.
A short description of assay [8]: Residual activity of S6K at 10 uM by microplate scintillation counting.
Assay [9] deals with Calcium/calmodulin-dependent protein kinase type II subunit alpha (Homo sapiens) (UniProt Q9UQM7). As to the kind of experiment: Residual activity of CAMK2A at 0.1 uM by microplate scintillation counting.
The target in assay [10] is BDNF/NT-3 growth factors receptor (Homo sapiens) (UniProt Q16620). Put plainly: Residual activity of TRK-B at 10 uM by microplate scintillation counting.
Assay [11] has as its target T2, Muscle, skeletal receptor tyrosine-protein kinase (Homo sapiens) (UniProt O15146).
T2 sequence (whole entry): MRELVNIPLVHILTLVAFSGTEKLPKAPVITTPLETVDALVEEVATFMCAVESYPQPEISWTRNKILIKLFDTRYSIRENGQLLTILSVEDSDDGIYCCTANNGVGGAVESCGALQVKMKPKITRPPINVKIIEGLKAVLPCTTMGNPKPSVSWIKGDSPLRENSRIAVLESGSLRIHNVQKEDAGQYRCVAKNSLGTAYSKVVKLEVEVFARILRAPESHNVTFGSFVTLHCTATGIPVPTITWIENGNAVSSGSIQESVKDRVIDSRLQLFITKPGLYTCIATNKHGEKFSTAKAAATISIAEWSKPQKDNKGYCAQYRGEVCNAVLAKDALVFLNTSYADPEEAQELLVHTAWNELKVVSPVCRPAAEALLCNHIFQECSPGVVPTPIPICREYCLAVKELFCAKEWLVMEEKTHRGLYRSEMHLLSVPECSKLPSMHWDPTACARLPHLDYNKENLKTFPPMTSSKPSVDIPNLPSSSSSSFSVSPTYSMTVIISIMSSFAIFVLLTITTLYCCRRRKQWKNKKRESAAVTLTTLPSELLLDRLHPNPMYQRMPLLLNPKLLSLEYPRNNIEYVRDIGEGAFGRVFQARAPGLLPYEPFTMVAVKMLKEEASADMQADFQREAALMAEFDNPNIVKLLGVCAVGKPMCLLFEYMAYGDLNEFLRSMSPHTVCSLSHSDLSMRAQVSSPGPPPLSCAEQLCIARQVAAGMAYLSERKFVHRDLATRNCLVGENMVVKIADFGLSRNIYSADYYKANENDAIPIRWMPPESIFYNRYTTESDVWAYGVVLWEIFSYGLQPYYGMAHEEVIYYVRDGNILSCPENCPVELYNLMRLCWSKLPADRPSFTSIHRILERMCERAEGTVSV
Put plainly: Residual activity of MUSK at 1 uM by microplate scintillation counting.

In assay [12] the target is CDK1/Cyclin E (Homo sapiens) (UniProt P06493+P24864). Put plainly: Residual activity of CDK1/Cyclin E at 1 uM by microplate scintillation counting. It counts as protein-complex assay.
For assay [13], the target named is T3, Serine/threonine-protein kinase 3 (Homo sapiens) (UniProt Q13188).
T3 sequence (whole entry): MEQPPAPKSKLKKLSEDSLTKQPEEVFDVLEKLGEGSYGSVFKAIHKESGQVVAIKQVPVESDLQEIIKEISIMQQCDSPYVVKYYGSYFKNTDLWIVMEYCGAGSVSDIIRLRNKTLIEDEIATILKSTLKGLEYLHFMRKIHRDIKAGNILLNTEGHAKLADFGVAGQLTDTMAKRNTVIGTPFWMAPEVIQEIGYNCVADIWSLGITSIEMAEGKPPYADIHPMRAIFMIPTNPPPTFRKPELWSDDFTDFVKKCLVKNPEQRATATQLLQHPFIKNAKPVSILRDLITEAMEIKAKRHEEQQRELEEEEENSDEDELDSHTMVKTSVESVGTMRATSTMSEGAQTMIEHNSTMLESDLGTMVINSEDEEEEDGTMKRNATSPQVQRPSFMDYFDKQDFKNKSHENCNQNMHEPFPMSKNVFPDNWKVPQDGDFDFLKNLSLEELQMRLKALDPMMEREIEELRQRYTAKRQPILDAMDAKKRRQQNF
As to the kind of experiment: Residual activity of MST2 at 0.1 uM by microplate scintillation counting.

Assay [14] addresses Serine/threonine-protein kinase PAK 3 (Homo sapiens) (UniProt O75914). Put plainly: Residual activity of PAK3 at 1 uM by microplate scintillation counting.
Assay [15] addresses Casein kinase I isoform gamma-2 (Homo sapiens) (UniProt P78368). As to the kind of experiment: Residual activity of CK1gamma2 at 0.1 uM by microplate scintillation counting.
Assay [16] addresses Insulin receptor-related protein (Homo sapiens) (UniProt P14616). Put plainly: Residual activity of INSRR at 10 uM by microplate scintillation counting.
Assay [17] has as its target Casein kinase II subunit alpha (Homo sapiens) (UniProt P68400). As to the kind of experiment: Residual activity of CK2alpha1 at 0.1 uM by microplate scintillation counting.
Assay [18] relates to Tyrosine-protein kinase ABL1 (Homo sapiens), P00519 [T315I]. As to the kind of experiment: Residual activity of ABL1 T315I mutant at 1 uM by microplate scintillation counting.

Sequence of Leukocyte tyrosine kinase receptor (Homo sapiens) (P29376 whole entry): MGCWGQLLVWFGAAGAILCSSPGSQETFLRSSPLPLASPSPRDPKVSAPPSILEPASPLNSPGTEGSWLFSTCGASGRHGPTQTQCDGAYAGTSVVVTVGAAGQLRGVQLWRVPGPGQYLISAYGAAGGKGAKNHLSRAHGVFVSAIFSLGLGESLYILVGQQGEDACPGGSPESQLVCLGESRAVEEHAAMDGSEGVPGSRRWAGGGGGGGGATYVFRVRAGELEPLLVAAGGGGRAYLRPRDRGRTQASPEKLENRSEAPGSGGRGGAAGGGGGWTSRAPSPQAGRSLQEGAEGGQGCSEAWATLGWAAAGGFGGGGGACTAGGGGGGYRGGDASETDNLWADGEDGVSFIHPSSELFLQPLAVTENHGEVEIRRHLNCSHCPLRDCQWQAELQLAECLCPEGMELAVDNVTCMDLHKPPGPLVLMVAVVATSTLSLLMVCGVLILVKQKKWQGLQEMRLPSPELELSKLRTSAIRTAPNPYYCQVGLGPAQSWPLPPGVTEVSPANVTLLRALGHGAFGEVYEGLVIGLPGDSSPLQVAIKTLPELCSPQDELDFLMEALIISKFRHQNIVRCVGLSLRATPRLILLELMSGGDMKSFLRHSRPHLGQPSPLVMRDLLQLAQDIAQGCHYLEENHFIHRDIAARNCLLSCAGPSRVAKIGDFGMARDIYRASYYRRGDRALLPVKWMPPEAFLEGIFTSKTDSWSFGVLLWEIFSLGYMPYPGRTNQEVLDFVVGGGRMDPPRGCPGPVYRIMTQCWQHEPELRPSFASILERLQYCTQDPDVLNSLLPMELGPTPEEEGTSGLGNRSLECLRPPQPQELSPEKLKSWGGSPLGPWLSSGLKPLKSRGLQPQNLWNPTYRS
Sequence of Hepatocyte growth factor receptor (Homo sapiens) (P08581 whole entry): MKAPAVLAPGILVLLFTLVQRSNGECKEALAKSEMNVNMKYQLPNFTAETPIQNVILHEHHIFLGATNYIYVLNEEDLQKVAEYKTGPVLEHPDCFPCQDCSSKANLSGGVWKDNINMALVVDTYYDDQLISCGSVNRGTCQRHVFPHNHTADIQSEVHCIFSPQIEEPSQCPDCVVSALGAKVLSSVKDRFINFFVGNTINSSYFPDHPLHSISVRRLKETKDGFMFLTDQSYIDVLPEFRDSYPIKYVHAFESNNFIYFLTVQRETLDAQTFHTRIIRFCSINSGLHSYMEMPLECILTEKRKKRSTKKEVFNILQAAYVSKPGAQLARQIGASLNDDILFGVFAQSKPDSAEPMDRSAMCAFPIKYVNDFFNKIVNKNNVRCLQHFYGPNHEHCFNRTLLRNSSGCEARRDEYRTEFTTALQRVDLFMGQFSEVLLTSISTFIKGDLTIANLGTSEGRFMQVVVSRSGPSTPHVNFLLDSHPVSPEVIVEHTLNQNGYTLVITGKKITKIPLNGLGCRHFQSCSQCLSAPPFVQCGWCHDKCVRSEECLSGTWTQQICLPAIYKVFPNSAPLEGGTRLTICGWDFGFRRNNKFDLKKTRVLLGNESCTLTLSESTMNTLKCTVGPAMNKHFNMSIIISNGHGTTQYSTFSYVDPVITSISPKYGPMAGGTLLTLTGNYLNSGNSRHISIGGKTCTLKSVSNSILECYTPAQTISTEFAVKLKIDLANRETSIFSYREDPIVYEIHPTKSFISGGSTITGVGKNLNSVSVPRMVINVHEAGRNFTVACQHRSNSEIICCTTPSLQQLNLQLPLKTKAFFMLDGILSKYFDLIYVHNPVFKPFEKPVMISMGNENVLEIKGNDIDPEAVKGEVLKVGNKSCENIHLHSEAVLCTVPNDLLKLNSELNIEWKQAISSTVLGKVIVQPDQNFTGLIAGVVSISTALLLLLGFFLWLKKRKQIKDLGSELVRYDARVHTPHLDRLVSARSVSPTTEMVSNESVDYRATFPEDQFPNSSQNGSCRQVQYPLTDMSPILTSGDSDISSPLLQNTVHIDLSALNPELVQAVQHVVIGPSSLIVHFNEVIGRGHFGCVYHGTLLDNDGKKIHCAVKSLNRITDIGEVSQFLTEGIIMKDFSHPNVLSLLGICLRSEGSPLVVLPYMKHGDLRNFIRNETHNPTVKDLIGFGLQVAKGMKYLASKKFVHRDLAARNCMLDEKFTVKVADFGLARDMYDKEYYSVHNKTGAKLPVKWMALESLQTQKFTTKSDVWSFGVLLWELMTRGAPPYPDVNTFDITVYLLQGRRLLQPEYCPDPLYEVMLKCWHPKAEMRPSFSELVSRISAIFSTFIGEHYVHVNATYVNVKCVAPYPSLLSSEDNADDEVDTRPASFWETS
Sequence of Cyclin-dependent kinase 1/cyclin B1 (Homo sapiens) (P06493 whole entry, looked up): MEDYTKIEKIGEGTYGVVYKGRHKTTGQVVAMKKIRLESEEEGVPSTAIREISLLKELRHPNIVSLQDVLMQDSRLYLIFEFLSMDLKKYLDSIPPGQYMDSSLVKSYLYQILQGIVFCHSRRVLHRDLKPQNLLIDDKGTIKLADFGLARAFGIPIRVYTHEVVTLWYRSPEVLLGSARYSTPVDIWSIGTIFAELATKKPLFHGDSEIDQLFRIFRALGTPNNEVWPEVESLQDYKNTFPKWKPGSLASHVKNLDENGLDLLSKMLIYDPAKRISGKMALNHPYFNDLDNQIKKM
Sequence of Cyclin-dependent kinase 1/cyclin B1 (Homo sapiens) (P14635 whole entry, looked up): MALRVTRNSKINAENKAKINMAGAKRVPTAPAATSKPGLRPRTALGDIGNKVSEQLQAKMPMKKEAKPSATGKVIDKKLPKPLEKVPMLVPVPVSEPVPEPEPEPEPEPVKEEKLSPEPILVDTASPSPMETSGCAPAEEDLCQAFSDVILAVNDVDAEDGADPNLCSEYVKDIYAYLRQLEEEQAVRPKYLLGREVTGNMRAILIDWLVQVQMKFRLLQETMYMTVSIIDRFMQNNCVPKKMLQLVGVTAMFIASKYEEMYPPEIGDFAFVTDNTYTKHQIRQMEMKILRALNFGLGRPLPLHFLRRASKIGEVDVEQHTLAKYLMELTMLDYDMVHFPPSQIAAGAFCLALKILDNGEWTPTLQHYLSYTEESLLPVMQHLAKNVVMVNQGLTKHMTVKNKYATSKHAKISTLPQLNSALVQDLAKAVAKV
Sequence of CDK1/Cyclin E (Homo sapiens) (P06493 whole entry, looked up): as the sequence (P06493 whole entry, looked up) above
Sequence of CDK1/Cyclin E (Homo sapiens) (P24864 whole entry, looked up): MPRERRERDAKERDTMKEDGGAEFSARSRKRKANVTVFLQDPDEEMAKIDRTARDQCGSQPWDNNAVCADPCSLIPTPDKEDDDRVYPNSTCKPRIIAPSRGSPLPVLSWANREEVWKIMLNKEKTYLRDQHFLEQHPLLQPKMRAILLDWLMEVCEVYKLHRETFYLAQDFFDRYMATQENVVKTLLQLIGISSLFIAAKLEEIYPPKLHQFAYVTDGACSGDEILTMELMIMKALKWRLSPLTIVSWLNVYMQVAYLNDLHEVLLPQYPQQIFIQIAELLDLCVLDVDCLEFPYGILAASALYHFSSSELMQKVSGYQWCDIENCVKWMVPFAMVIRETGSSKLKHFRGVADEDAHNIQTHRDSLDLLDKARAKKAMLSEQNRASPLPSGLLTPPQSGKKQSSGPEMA
Sequence of BDNF/NT-3 growth factors receptor (Homo sapiens) (Q16620 32-822 limits assumed): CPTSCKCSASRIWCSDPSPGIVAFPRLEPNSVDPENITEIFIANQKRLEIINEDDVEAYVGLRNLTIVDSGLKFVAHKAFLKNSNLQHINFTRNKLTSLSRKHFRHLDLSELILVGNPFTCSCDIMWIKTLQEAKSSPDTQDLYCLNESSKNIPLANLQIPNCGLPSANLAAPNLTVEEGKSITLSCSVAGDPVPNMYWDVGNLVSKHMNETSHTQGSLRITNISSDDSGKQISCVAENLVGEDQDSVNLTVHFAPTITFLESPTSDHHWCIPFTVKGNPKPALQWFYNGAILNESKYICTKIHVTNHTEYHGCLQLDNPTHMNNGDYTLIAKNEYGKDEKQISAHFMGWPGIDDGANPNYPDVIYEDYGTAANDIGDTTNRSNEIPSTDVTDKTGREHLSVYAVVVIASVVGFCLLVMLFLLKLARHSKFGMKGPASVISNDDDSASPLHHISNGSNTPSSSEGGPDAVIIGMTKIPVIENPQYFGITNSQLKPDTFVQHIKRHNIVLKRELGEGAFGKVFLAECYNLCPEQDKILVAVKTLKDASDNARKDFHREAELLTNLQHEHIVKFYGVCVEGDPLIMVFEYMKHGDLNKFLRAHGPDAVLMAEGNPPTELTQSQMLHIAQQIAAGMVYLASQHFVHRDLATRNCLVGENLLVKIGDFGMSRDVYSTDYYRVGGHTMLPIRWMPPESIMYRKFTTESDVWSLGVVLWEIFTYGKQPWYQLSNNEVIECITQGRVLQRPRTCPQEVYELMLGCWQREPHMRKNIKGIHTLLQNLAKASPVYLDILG
Sequence of Calcium/calmodulin-dependent protein kinase type II subunit alpha (Homo sapiens) (Q9UQM7 whole entry): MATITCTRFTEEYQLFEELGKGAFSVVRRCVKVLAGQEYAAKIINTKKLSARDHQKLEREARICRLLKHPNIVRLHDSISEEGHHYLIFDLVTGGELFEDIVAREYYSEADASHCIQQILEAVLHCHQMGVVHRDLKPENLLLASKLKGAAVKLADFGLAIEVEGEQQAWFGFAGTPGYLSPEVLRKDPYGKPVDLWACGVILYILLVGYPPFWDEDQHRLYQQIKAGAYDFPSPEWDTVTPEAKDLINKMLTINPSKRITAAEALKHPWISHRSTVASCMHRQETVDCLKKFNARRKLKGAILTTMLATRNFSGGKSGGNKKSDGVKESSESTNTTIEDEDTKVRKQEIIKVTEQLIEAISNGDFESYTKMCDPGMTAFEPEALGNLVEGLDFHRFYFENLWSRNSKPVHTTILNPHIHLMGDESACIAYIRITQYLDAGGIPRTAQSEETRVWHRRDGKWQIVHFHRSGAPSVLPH

For the compound `COc1cc2c(Oc3ccc(-c4nc5ccccc5s4)cc3)ncnc2cc1OCCCN1CCN(C)CC1`, the residual activity turned out to be 83% in assay [1]; 111% in assay [2]; 86% in [3]; 90% in assay [4]; 36% in assay [6]; 123% in assay [7]. Moreover, the residual activity stood at 29% in assay [8]; 80% in assay [9]; 114% in assay [10]; 89% in assay [11]; 88% in [12]; 90% in assay [13]. The residual activity in assay [14] worked out at 85%; in [15], 93%; in [16], 51%; in [17] it was 95%; in assay [18] it was 103%. In assay [5], the IC50 was > 10 µM.
In the case of `COc1cc2c(Oc3ccc(-c4nc5ccccc5s4)cc3)ncnc2cc1OCCCN1CCCC1`, the residual activity in assay [1] was determined as 106%; in [2] it was 96%; in assay [3], 86%; in [4], 92%; in assay [6] it was 26%; in [7], 143%. In addition, the residual activity in [8] was found to be 37%; in assay [9] it was 85%; in assay [10], 82%; in [11], 94%; in assay [12], 85%; in [13], 82%. The residual activity in assay [14] came out at 101%; in [15], 93%; in assay [16], 43%; in assay [17] it was 132%; in [18], 95%. Moreover, the IC50 in assay [5] was > 10 µM.
With `COc1cc2c(Oc3ccc(-c4nc5ccccc5s4)cc3F)ncnc2cc1OCCCN1CCN(C)CC1`, the residual activity in assay [1] is 81%; in assay [2], 100%; in assay [3], 87%; in assay [4], 91%; in assay [6], 34%; in [7], 127%. In addition, the residual activity in assay [8] is 36%; in assay [9], 91%; in assay [10], 69%; in assay [11] it was 88%; in assay [12] it was 90%; in assay [13] it was 92%. Further, the residual activity is 95% in assay [14]; 90% in assay [15]; 7% in assay [16]; 87% in [17]; 96% in [18]. Also, the half-inhibitory concentration (IC50) in [5] is > 10 µM.

The record behind these values is ChEMBL document CHEMBL1152560, “Substituted 2-arylbenzothiazoles as kinase inhibitors: hit-to-lead optimization” (Bioorg Med Chem, 2009).
